Assay [1] addresses T1, GRK2 (Homo sapiens, UniProt P25098).
T1 sequence (P25098 1-689): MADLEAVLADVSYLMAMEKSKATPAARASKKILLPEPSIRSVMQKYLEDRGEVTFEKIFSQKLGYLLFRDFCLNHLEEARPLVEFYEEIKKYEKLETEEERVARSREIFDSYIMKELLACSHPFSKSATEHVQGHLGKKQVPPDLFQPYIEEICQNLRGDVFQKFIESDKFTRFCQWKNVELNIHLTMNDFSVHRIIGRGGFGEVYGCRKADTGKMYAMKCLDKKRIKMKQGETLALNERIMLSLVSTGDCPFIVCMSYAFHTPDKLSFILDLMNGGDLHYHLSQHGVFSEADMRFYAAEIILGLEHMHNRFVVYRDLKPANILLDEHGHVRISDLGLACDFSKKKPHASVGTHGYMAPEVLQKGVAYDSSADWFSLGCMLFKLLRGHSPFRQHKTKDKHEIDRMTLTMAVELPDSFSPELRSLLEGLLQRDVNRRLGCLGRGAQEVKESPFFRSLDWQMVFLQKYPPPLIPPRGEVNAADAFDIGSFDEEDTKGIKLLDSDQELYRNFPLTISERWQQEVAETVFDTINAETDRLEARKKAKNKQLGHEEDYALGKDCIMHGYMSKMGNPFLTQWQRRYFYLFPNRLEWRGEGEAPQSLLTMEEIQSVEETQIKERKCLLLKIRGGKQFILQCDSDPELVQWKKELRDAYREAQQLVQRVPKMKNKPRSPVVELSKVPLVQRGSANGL
As to the kind of experiment: GRK2 Inhibition Assay (TR-FRET, Example 1). Type of assay: biochemical. Conditions: Table 4; Example 1 assay; read-out: Enzymatic GRK2 IC50: Av IC50 GRK2. An outline of the steps: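 TR-FRET phosphorylation readout: Eu anti-TopoIIα antibody with EDTA added after a 90 min RT kinase reaction of 1 nM GRK2, 7 μM ATP and 50 nM ULight-TopoIIα. Compounds were pre-incubated with enzyme 30 min at room temperature beforehand.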

Another assay relates to PAXF1657 EV. As to the kind of experiment: 7-day cellular proliferation assay (CellTiter-Glo), PAXF1657 EV. Type of assay: cell-based. Conditions: proliferation, read-out: GeoMean IC50 (UM) PAXF1657 EV. Put shortly:
(§1)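 Isogenic PAXF1657 pairs differing in GRK2 level (stable cDNA overexpression or CRISPR knockout, each with matched control) are seeded and allowed to attach overnight. Inhibitors span 30 μM-0.0002 μM in 0.3% DMSO for 3 plus 4 days at 37° C, 5% CO2, with a medium change between.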
On the technique in general: Cellular ATP, detected with luciferase, serves as a proxy for viable cell number.

The test system of another assay is PAXF1657 KO Clone #4. As to the kind of experiment: 7-day cellular proliferation assay (CellTiter-Glo), PAXF1657 KO Clone #4. The format is cell-based. Conditions: proliferation, read-out: GeoMean IC50 (uM) PAXF1657 KO Clone #4. Put shortly:
as §1

For assay [2], the target named is T1, GRK2. As to the kind of experiment: GRK2 Degradation Assay and Western Blot in PAXF1657 cells. The format is cell-based. Also on record: endogenous in cells; host or cells: PAXF1657. Conditions: read-out: Degradation Assay - 3 point: Degradation (%); for inhibition at 0.3 µM: Conc 0.3 uM; for inhibition at 1 µM: Conc 1 uM; for inhibition at 3 µM: Conc 3 uM. An outline of the steps: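 GRK2 degradation judged by immunoblot: NP40 lysates separated by SDS-PAGE and probed for GRK2 and β-actin, with HRP/ECL detection. Lysates came from PAXF1657 cells exposed to 0–10 μM compound for 6–24 h after reaching 70% confluency.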
Background: Immunoblotting shows a protein as a band on a membrane.

Where a name gives a salt, the structure may show the parent alone. A value given as a limit tells only on which side of the number the result lay.

With `C[C@@H](NC(=O)c1cccc(NCc2nnc(-c3ccncn3)n2C)c1)c1ccc(OCCCCN2CCN(c3ccc4c(c3)CN(C3CCC(=O)NC3=O)C4=O)CC2)cc1` (stereo partly drawn) [Compound D175, N-((1R)-1-(4-(4-(4-(2-(2,6-dioxopiperidin-3-yl)-1-oxoisoindolin-5-yl)piperazin-1-yl)butoxy)phenyl)ethyl)-3-((4-methyl-5-(pyrimidin-4-yl)-4H-1,2,4-triazol-3-yl)methylamino)benzamide hydrochloride], the IC50 (in general, the concentration that inhibits the measured activity by half) on GRK2 [1] amounted to 10.3 nM. In addition, the IC50 in the assay with PAXF1657 EV was below 0.458 nM. Further, the IC50 in the assay with PAXF1657 KO Clone #4 was above 30 µM. In addition, at GRK2 [2], the inhibition at 0.3 µM is 87.7%, the inhibition at 1 µM was found to be 89.2% and the inhibition at 3 µM is 82.8%.

For `C[C@@H](NC(=O)c1cccc(NCc2nnc(-c3ccncn3)n2C)c1)c1cccc(OCC(=O)N2CCN(c3ccc4c(c3)CN(C3CCC(=O)NC3=O)C4=O)CC2)c1` (stereo partly drawn) [Compound D176, N-((1R)-1-(3-(2-(4-(2-(2,6-dioxopiperidin-3-yl)-1-oxoisoindolin-5-yl)piperazin-1-yl)-2-oxoethoxy)phenyl)ethyl)-3-((4-methyl-5-(pyrimidin-4-yl)-4H-1,2,4-triazol-3-yl)methylamino)benzamide], the IC50 at GRK2 [1] was 24.1 nM. Moreover, the half-inhibitory concentration (IC50) with PAXF1657 EV is 8020 nM. Moreover, the IC50 with PAXF1657 KO Clone #4 is above 30 µM. For the same compound, at GRK2 [2], the inhibition at 0.3 µM came out at 33%, the inhibition at 1 µM was determined as 24.4% and the inhibition at 3 µM is 10.7%.

As for `C[C@@H](NC(=O)c1cccc(NCc2nnc(-c3ccncn3)n2C)c1)c1ccc(OCC(=O)N2CCN(c3ccc4c(c3)CN(C3CCC(=O)NC3=O)C4=O)CC2)cc1` (stereo partly drawn) [Compound D177, N-((1R)-1-(4-(2-(4-(2-(2,6-dioxopiperidin-3-yl)-1-oxoisoindolin-5-yl)piperazin-1-yl)-2-oxoethoxy)phenyl)ethyl)-3-((4-methyl-5-(pyrimidin-4-yl)-4H-1,2,4-triazol-3-yl)methylamino)benzamide], the IC50 on GRK2 [1] was determined as 10.2 nM. For the same compound, the IC50 in the assay with PAXF1657 EV amounted to 27000 nM. The IC50 in the assay with PAXF1657 KO Clone #4 is above 30 µM. Further, on GRK2 [2], the inhibition at 0.3 µM is 13.2%, the inhibition at 1 µM turned out to be 20.9% and the inhibition at 3 µM was 36.8%.

On to `C[C@@H](NC(=O)c1cccc(NCc2nnc(-c3ccncn3)n2C)c1)c1cccc(OCCCCCCOCCOCCOCCCC(=O)N2CCN(c3cc4c(cc3F)C(=O)N(C3CCC(=O)NC3=O)C4=O)CC2)c1` (stereo partly drawn) [Compound D178, N-((1R)-1-(3-((6-(2-(2-(4-(4-(2-(2,6-dioxopiperidin-3-yl)-6-fluoro-1,3-dioxoisoindolin-5-yl)piperazin-1-yl)-4-oxobutoxy)ethoxy)ethoxy)hexyl)oxy)phenyl)ethyl)-3-(((4-methyl-5-(pyrimidin-4-yl)-4H-1,2,4-triazol-3-yl)methyl)amino)benzamide], for which the IC50 at GRK2 [1] was found to be 11.6 nM. Moreover, the concentration for half-maximal inhibition (IC50) with PAXF1657 EV was 310 nM. Further, the IC50 with PAXF1657 KO Clone #4 was above 30 µM. Moreover, at GRK2 [2], the inhibition at 0.3 µM was found to be 45%, the inhibition at 1 µM was determined as 72% and the inhibition at 3 µM was 84%.

For the compound `C[C@@H](NC(=O)c1cccc(NCc2nnc(-c3ccncn3)n2C)c1)c1cccc(OCCCCCCOCCOCCOCCCC(=O)N2CCN(c3ccc4c(c3)CN(C3CCC(=O)NC3=O)C4=O)CC2)c1` (stereo partly drawn) [Compound D179, N-((1R)-1-(3-((6-(2-(2-(4-(4-(2-(2,6-dioxopiperidin-3-yl)-1-oxoisoindolin-5-yl)piperazin-1-yl)-4-oxobutoxy)ethoxy)ethoxy)hexyl)oxy)phenyl)ethyl)-3-(((4-methyl-5-(pyrimidin-4-yl)-4H-1,2,4-triazol-3-yl)methyl)amino)benzamide], the IC50 on GRK2 [1] was 6.36 nM; in the assay with PAXF1657 EV, 140 nM; with PAXF1657 KO Clone #4 it was above 30 µM. For the same compound, on GRK2 [2], the inhibition at 0.3 µM worked out at 58%. Also, the inhibition at 1 µM at GRK2 [2] stood at 82%. For the same compound, the inhibition at 3 µM at GRK2 [2] worked out at 88%.

On to `C[C@@H](NC(=O)c1cccc(NCc2nnc(-c3ccncn3)n2C)c1)c1cccc(OCCCCCOCCCOCC(=O)N2CCN(c3cc4c(cc3F)C(=O)N(C3CCC(=O)NC3=O)C4=O)CC2)c1` (stereo partly drawn) [Compound D180, N-((1R)-1-(3-((5-(3-(2-(4-(2-(2,6-dioxopiperidin-3-yl)-6-fluoro-1,3-dioxoisoindolin-5-yl)piperazin-1-yl)-2-oxoethoxy)propoxy)pentyl)oxy)phenyl)ethyl)-3-(((4-methyl-5-(pyrimidin-4-yl)-4H-1,2,4-triazol-3-yl)methyl)amino)benzamide], for which, at GRK2 [1], the half-maximal inhibitory concentration (IC50) was 7.31 nM. The IC50 with PAXF1657 EV worked out at 820 nM. The IC50 in the assay on PAXF1657 KO Clone #4 is above 30 µM. Further, at GRK2 [2], the inhibition at 0.3 µM was 43%, the inhibition at 1 µM stood at 74% and the inhibition at 3 µM amounted to 85%.

With `C[C@@H](NC(=O)c1cccc(NCc2nnc(-c3ccncn3)n2C)c1)c1cccc(OCCCCCOCCCOCC(=O)N2CCN(c3ccc4c(c3)CN(C3CCC(=O)NC3=O)C4=O)CC2)c1` (stereo partly drawn) [Compound D181, N-((1R)-1-(3-((5-(3-(2-(4-(2-(2,6-dioxopiperidin-3-yl)-1-oxoisoindolin-5-yl)piperazin-1-yl)-2-oxoethoxy)propoxy)pentyl)oxy)phenyl)ethyl)-3-(((4-methyl-5-(pyrimidin-4-yl)-4H-1,2,4-triazol-3-yl)methyl)amino)benzamide], at GRK2 [1], the IC50 is 11.8 nM. Besides, the IC50 in the assay with PAXF1657 EV was determined as 580 nM. The IC50 with PAXF1657 KO Clone #4 was above 30 µM. Further, on GRK2 [2], the inhibition at 0.3 µM amounted to 55%, the inhibition at 1 µM turned out to be 78% and the inhibition at 3 µM was 86%.

On to `C[C@@H](NC(=O)c1cccc(NCc2nnc(-c3ccncn3)n2C)c1)c1cccc(OCCCCCOCCCOCC(=O)Nc2cccc3c2CN(C2CCC(=O)NC2=O)C3=O)c1` (stereo partly drawn) [Compound D183, N-((1R)-1-(3-((5-(3-(2-((2-(2,6-dioxopiperidin-3-yl)-1-oxoisoindolin-4-yl)amino)-2-oxoethoxy)propoxy)pentyl)oxy)phenyl)ethyl)-3-(((4-methyl-5-(pyrimidin-4-yl)-4H-1,2,4-triazol-3-yl)methyl)amino)benzamide], for which the IC50 on GRK2 [1] turned out to be 16.7 nM. Besides, the IC50 in the assay on PAXF1657 EV was determined as 110 nM. In addition, in the assay on PAXF1657 KO Clone #4, the IC50 was above 30 µM. Besides, on GRK2 [2], the inhibition at 0.3 µM amounted to 82%, the inhibition at 1 µM is 86.5% and the inhibition at 3 µM was determined as 94.6%.

Take `C[C@H](NC(=O)c1cccc(NCc2nnc(-c3ccncn3)n2C)c1)c1cccc(OCCCCCOCCCOCC(=O)Nc2cccc3c2CN(C2CCC(=O)NC2=O)C3=O)c1` (stereo partly drawn) [Compound D185, N-((1S)-1-(3-((5-(3-(2-((2-(2,6-dioxopiperidin-3-yl)-1-oxoisoindolin-4-yl)amino)-2-oxoethoxy)propoxy)pentyl)oxy)phenyl)ethyl)-3-(((4-methyl-5-(pyrimidin-4-yl)-4H-1,2,4-triazol-3-yl)methyl)amino)benzamide]: the 50% inhibitory concentration (IC50) on GRK2 [1] amounted to 211 nM. The IC50 in the assay on PAXF1657 EV is above 30000 nM. In the assay on PAXF1657 KO Clone #4, the IC50 was above 30 µM. Further, on GRK2 [2], the inhibition at 0.3 µM was 1.79%, the inhibition at 1 µM came out at 17.5% and the inhibition at 3 µM was 19.2%.

As to `C[C@@H](NC(=O)c1cccc(NCc2nnc(-c3ccncn3)n2C)c1)c1cccc(OCCCCCCOCCOCCOCCCCCC(=O)Nc2cccc3c2CN(C2CCC(=O)N(C)C2=O)C3=O)c1` (stereo partly drawn) [Compound D190], the IC50 at GRK2 [1] turned out to be 12.7 nM; in the assay on PAXF1657 EV it was 1740 nM; in the assay on PAXF1657 KO Clone #4 it was 26.8 µM. The inhibition at 0.3 µM on GRK2 [2] is -22%. The inhibition at 1 µM at GRK2 [2] came to 51%. Further, the inhibition at 3 µM at GRK2 [2] stood at 53%.

For the origin of these results see patent US20240174637A1, “DEGRADERS OF GRK2 AND USES THEREOF” (Sonata Therapeutics, Inc., priority 2021, published 2024).
